# Legend:
# Bcr/Abl fusion protein = Bcr/Abl fusion protein (Homo sapiens, UniProt P00519); assay: Inhibition of Bcr-Abl (unknown origin) after 1 hr by luminescence assay; assay type: protein assay
# K562 = assay: cells; conditions: Homo sapiens, K562, 48 h
# K562 (Homo sapiens) = assay: Antiproliferative activity against human K562 cells by MTT assay
# Bcr/Abl fusion protein, sequence (P00519 whole entry, the tested form may be a part): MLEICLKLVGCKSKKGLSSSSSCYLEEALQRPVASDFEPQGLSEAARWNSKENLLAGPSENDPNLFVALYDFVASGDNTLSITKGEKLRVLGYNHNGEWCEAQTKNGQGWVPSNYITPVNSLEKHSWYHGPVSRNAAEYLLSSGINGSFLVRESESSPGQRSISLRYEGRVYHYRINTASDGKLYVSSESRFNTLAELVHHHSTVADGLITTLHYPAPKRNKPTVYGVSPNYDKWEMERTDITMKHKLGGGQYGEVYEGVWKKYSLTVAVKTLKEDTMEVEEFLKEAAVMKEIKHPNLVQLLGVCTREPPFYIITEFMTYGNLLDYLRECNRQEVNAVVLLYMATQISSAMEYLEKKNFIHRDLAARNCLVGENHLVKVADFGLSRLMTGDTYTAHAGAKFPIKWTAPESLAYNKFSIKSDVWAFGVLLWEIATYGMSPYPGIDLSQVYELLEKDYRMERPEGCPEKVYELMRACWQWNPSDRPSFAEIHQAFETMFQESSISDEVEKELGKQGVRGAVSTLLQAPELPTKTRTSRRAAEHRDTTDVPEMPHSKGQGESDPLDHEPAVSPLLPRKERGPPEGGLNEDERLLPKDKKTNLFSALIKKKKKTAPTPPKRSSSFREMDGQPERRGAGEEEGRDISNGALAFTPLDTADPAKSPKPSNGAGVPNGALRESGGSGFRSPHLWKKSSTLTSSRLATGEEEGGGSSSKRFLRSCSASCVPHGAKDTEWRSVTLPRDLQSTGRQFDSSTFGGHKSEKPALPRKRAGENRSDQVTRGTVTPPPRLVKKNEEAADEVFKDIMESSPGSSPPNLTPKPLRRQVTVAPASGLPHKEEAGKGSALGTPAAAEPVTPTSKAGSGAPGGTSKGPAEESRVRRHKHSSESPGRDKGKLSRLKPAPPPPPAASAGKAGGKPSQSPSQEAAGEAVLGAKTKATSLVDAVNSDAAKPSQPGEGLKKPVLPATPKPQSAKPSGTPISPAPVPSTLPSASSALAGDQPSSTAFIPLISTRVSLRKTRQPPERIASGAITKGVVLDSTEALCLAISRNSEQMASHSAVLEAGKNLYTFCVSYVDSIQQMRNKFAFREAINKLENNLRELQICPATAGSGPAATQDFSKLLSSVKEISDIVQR
# Bcr/Abl fusion protein, sequence (P11274 whole entry, further chain, the tested form may be a part): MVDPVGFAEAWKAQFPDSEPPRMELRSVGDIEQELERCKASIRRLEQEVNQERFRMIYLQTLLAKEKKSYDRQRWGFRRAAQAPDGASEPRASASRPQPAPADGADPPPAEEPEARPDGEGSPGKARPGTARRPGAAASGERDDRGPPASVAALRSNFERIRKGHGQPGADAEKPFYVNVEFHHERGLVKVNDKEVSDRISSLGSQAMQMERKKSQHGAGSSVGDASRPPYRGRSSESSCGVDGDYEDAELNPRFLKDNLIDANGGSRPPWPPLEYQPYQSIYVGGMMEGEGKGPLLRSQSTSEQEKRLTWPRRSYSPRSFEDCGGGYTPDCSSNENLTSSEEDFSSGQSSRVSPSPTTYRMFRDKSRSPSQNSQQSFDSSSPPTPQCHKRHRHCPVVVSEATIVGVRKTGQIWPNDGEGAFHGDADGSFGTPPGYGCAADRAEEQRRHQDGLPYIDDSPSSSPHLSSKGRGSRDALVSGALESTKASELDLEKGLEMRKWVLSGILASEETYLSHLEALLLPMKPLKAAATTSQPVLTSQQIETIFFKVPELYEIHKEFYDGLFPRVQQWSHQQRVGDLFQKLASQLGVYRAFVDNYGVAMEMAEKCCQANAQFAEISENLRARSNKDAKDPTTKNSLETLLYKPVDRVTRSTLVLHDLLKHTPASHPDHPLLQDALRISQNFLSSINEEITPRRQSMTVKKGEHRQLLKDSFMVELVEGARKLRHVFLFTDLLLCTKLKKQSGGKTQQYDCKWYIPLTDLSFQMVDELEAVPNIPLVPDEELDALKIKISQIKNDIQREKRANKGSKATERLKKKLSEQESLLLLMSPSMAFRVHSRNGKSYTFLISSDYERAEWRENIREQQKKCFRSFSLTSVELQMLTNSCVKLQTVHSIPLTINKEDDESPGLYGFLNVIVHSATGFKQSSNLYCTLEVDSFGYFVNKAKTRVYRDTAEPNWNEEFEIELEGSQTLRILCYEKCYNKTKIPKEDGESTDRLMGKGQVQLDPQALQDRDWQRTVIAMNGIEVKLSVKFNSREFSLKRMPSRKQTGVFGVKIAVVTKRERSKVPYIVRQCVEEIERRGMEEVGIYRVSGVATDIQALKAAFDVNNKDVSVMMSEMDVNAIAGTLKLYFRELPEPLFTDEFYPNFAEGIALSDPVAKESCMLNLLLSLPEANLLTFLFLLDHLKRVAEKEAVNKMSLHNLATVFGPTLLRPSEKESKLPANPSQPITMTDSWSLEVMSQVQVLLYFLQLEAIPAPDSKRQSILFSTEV
Compound,IC50 (Bcr/Abl fusion protein) [µM],IC50 (K562) [µM],IC50 (K562 (Homo sapiens)) [µM]
COc1ccc(Nc2cc(-c3ccc(C(=O)NCCNC(=O)c4ccccc4C)cc3)ncn2)cc1,14.5,38.5,
COc1ccc(Nc2cc(-c3ccc(C(=O)NCCNC(=O)c4cccc(OC)c4)cc3)ncn2)cc1,8.53,11.2,
COc1ccc(Nc2cc(-c3ccc(C(=O)NCCNC(=O)c4c(F)cccc4Cl)cc3)ncn2)cc1,6.2,8.5,
COc1ccc(Nc2cc(-c3ccc(C(=O)NCCNC(=O)c4cccc(N(C)C)c4)cc3)ncn2)cc1,9.25,0.85,
COc1ccc(Nc2cc(-c3ccc(C(=O)N4CCN(C(=O)c5ccc(F)c(F)c5)CC4)cc3)ncn2)cc1,,15.3,15.3
COc1ccc(Nc2cc(-c3ccc(C(=O)N4CCN(C(=O)c5cccc(C(F)(F)F)c5)CC4)cc3)ncn2)cc1,,51.9,51.9
COc1ccc(Nc2cc(-c3ccc(C(=O)N4CCN(C(=O)c5cccc(C)c5)CC4)cc3)ncn2)cc1,> 100,> 100,
COc1ccc(Nc2cc(-c3ccc(C(=O)NCCNC(=O)c4cccc(F)c4)cc3)ncn2)cc1,11.3,33.9,
COc1ccc(Nc2cc(-c3ccc(C(=O)NCCNC(=O)c4ccc(C(C)(C)C)cc4)cc3)ncn2)cc1,> 100,0.83,
COc1ccc(Nc2cc(-c3ccc(C(=O)N4CCN(C(=O)c5ccccc5F)CC4)cc3)ncn2)cc1,8.96,8.96,
COc1ccc(Nc2cc(-c3ccc(C(=O)N4CCN(C(=O)c5cccc(N(C)C)c5)CC4)cc3)ncn2)cc1,,> 100,> 100
COc1ccc(Nc2cc(-c3ccc(C(=O)N4CCN(C(=O)c5ccc(OC)cc5)CC4)cc3)ncn2)cc1,> 100,> 100,
COc1ccc(Nc2cc(-c3ccc(C(=O)N4CCN(C(=O)c5cccc(F)c5)CC4)cc3)ncn2)cc1,,42.2,
COc1ccc(Nc2cc(-c3ccc(C(=O)N4CCN(C(=O)c5ccc(Cl)cc5Cl)CC4)cc3)ncn2)cc1,,35,35
COc1ccc(Nc2cc(-c3ccc(C(=O)N4CCN(C(=O)c5ccccc5Cl)CC4)cc3)ncn2)cc1,,73.9,
COc1ccc(Nc2cc(-c3ccc(C(=O)NCCNC(=O)c4ccccc4Cl)cc3)ncn2)cc1,9.24,0.64,
COc1ccc(Nc2cc(-c3ccc(C(=O)N4CCN(C(=O)c5ccc(F)cc5)CC4)cc3)ncn2)cc1,0.017,35.7,
COc1ccc(Nc2cc(-c3ccc(C(=O)NCCNC(=O)c4ccc(F)c(F)c4)cc3)ncn2)cc1,4.4,6.2,
COc1ccc(Nc2cc(-c3ccc(C(=O)NCCNC(=O)c4ccc(F)cc4)cc3)ncn2)cc1,,10.9,
COc1ccc(Nc2cc(-c3ccc(C(=O)NCCNC(=O)c4cccc(C(F)(F)F)c4)cc3)ncn2)cc1,2.59,65.3,

# Reference: ChEMBL document CHEMBL3616476, “Expanding the structural diversity of Bcr-Abl inhibitors: Hybrid molecules based on GNF-2 and Imatinib” (Bioorg Med Chem Lett, 2015)
